Test results from patent US7772241B2, “Variolin derivatives and their use as antitumor agents” (Pharma Mar S.A., priority 2001, dated 2010).
Read-outs that look alike come from different tables or passages of the source.

What was measured:
HT-29 = experiment: Inhibition of cells growth by colorimetric (SRB) assay, HT-29
In short: (§1)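 Read-out is sulforhodamine B protein stain (OD 490 nm) after cold TCA fixation, following 48 h continuous exposure to samples spanning 10 to 10^−8 μg/ml.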

[1] = Inhibition of cells growth by colorimetric (SRB) assay, HMEC1; details: human, HMEC1 cells, 48 hours exposure
Source text: (§2) The finality of these assays is to interrupt the growth of a “in vitro” tumor cell culture by means a continued exhibition of the cells to the sample to be testing.
(§3) This form of the assay employs 96 well cell culture microplates of 9 mm diameter (Faircloth, 1988; Mosmann, 1983). Most of the cell lines are obtained from American Type Culture Collection (ATCC) derived from different human cancer types.
(§4) Cells are maintained in RPMI 1640 10% FBS, supplemented with 0.1 g/l penicillin and 0.1 g/l streptomycin sulphate and then incubated at 37° C., 5% CO2 and 98% humidity. For the experiments, cells were harvested from subconfluent cultures using trypsin and resuspended in fresh medium before plating.
(§5) Cells are seeded in 96 well microtiter plates, at 5×10^3 cells per well in aliquots of 195 μl medium, and they are allowed to attach to the plate surface by growing in drug free medium for 18 hours. Afterward, samples are added in aliquots of 5 μl in a ranging from 10 to 10^−8 μg/ml, dissolved in DMSO/EtOH/PBS (0.5:0.5:99). After 48 hours exposure, the antitumor effect are measured by the SRB methodology: cells are fixed by adding 50 μl of cold 50% (wt/vol) trichloroacetic acid (TCA) and incubating for 60 minutes at 4° C. Plates are washed with deionized water and dried. One hundred μl of SRB solution (0.4% wt/vol in 1% acetic acid) is added to each microtiter well and incubated for 10 minutes at room temperature. Unbound SRB is removed by washing with 1% acetic acid. Plates are air dried and bound stain is solubilized with Tris buffer. Optical densities are read on a automated spectrophotometric plate reader at a single wavelength of 490 nm.
(§6) The values for mean +/−SD of data from triplicate wells are calculated. Some parameters for cellular responses can be calculated: GI=growth inhibition, TGI=total growth inhibition (cytostatic effect) and LC=cell killing (cytotoxic effect).

HMEC1 = experiment: as above; details: for H-MEC-1 TGI / TGI H-MEC-1: in M (unit assumed)
Source text: as §2, §3, §4, §5, §6

A-549 = experiment: Inhibition of cells growth by colorimetric (SRB) assay, A-549
In short: as §1

DU-145 = experiment: Inhibition of cells growth by colorimetric (SRB) assay, DU-145; details: SRB assay, 48 hours exposure
In short: as §1

SK-BR-3 = experiment: Inhibition of cells growth by colorimetric (SRB) assay, SK-BR-3; details: SRB assay, 48 hours exposure
In short: as §1

LNCaP = experiment: Inhibition of cells growth by colorimetric (SRB) assay, LNCaP
In short: as §1

PANC-1 = experiment: Inhibition of cells growth by colorimetric (SRB) assay, PANC-1; details: SRB assay, 48 hours exposure
In short: as §1

K-562 = experiment: Inhibition of cells growth by colorimetric (SRB) assay, K-562; details: SRB assay, 48 hours exposure
In short: as §1

LoVo = experiment: Inhibition of cells growth by colorimetric (SRB) assay, LoVo; details: SRB assay, 48 hours exposure
In short: as §1

IGROV-ET = experiment: Inhibition of cells growth by colorimetric (SRB) assay, IGROV-ET; details: SRB assay, 48 hours exposure
In short: as §1

SK-OV-3 = experiment: Inhibition of cells growth by colorimetric (SRB) assay, SK-OV-3
In short: as §1

SK-MEL-28 = experiment: Inhibition of cells growth by colorimetric (SRB) assay, SK-MEL-28; details: SRB assay, 48 hours exposure
In short: as §1

IGROV-1 = experiment: Inhibition of cells growth by colorimetric (SRB) assay, IGROV-1; details: SRB assay, 48 hours exposure
In short: as §1

LoVo-Dox = experiment: Inhibition of cells growth by colorimetric (SRB) assay, LoVo-Dox; details: SRB assay, 48 hours exposure
In short: as §1

[2] = Homo sapiens, HT-29, 48 h, read-out: HT-29 GI50, SRB assay, 48 hours exposure
[3] = Homo sapiens, HT-29, 48 h, read-out: HT-29 LC50, SRB assay, 48 hours exposure
[4] = Homo sapiens, HMEC-1, 48 h, read-out: H-MEC-1 GI50, SRB assay, 48 hours exposure
[5] = Homo sapiens, A549, 48 h, read-out: A-549 GI50, SRB assay, 48 hours exposure
[6] = Homo sapiens, A549, 48 h, read-out: A-549 LC50, SRB assay, 48 hours exposure
[7] = Homo sapiens, HT-29, 48 h, read-out: GI50 HT-29, SRB assay, 48 hours exposure
[8] = Homo sapiens, HT-29, 48 h, read-out: LC50 HT-29, SRB assay, 48 hours exposure
[9] = Homo sapiens, HMEC-1, 48 h, read-out: GI50 H-MEC-1, SRB assay, 48 hours exposure
[10] = Homo sapiens, A549, 48 h, read-out: GI50 A-549, SRB assay, 48 hours exposure
[11] = Homo sapiens, A549, 48 h, read-out: LC50 A-549, SRB assay, 48 hours exposure

For `Nc1nccc2c(-c3ccncn3)c3cccnc3n12` [Compound 70], the GI50 (HT-29; [2]) was 0.0381 µM, the CC50 (HT-29; [3]) was 38.1 µM and the “HT-29 TGI” value (HT-29; SRB assay, 48 hours exposure) was 3.81E−06. For the same compound, the CC50 at 48 h ([1]; H-MEC-1 LC50, SRB assay) was 4 µM, the GI50 (HMEC1; [4]) was 0.119 µM and the “H-MEC-1 TGI” value (HMEC1; SRB assay, 48 hours exposure) was 3.93E−07. The GI50 (A-549; [5]) was 0.182 µM, the CC50 (A-549; [6]) was 3.35 µM and the “A-549 TGI” value (A-549; SRB assay, 48 hours exposure) was 5.60E−07.
In the case of `Cc1nccc(-c2c3cccnc3n3c(N)nccc23)n1` [Compound 75], the GI50 (HT-29; [2]) is reported as 5.79 µM, the CC50 (HT-29; [3]) is reported as 36.2 µM and the “HT-29 TGI” value (HT-29; SRB assay, 48 hours exposure) is reported as 3.62E−05. The CC50 at 48 h ([1]; H-MEC-1 LC50, SRB assay) was 36.2 µM, the GI50 (HMEC1; [4]) was 1.43 µM and the “H-MEC-1 TGI” value (HMEC1; SRB assay, 48 hours exposure) was 8.00E−06. The GI50 (A-549; [5]) was 4.2 µM, the CC50 (A-549; [6]) was 21.3 µM and the “A-549 TGI” value (A-549; SRB assay, 48 hours exposure) was 9.45E−06.
With `CCOc1nccc(-c2c3cccnc3n3c(N)nccc23)n1` [Compound 77] the “TGI DU-145” value (DU-145) was 1.68E−06, the GI50 (DU-145; read-out: GI50 DU-145) was 0.63 µM and the CC50 (DU-145; read-out: LC50 DU-145) was 27.8 µM. For the same compound, the “TGI SK-BR-3” value (SK-BR-3) was 1.34E−06, the GI50 (SK-BR-3; read-out: GI50 SK-BR-3) was 0.643 µM and the CC50 (SK-BR-3; read-out: LC50 SK-BR-3) was 2.79 µM. For the same compound, the GI50 (LNCaP; Homo sapiens, LNCaP, 48 h, read-out: GI50 LN-caP, SRB assay, 48 hours exposure) was 0.617 µM, the CC50 (LNCaP; Homo sapiens, LNCaP, 48 h, read-out: LC50 LN-caP, SRB assay, 48 hours exposure) was 2.96 µM and the “TGI LN-caP” value (LNCaP; SRB assay, 48 hours exposure) was 1.35E−06. For the same compound, the “TGI PANC-1” value (PANC-1) was 7.80E−06, the GI50 (PANC-1; read-out: GI50 PANC-1) was 1.16 µM and the CC50 (PANC-1; read-out: LC50 PANC-1) was ≥ 32.6 µM. The “TGI K-562” value (K-562) was 3.26E−05, the GI50 (K-562; read-out: GI50 K-562) was 1.21 µM and the CC50 (K-562; read-out: LC50 K-562) was ≥ 32.6 µM. For the same compound, the “TGI HT-29” value (HT-29; SRB assay, 48 hours exposure) was 3.26E−06, the GI50 (HT-29; read-out: GI50 HT-29, SRB assay, 48 hours exposure) was 0.829 µM and the CC50 (HT-29; read-out: LC50 HT-29, SRB assay, 48 hours exposure) was 3.26 µM. For the same compound, the “TGI LOVO” value (LoVo) was 2.02E−06, the GI50 (LoVo; read-out: GI50 LOVO) was 0.629 µM and the CC50 (LoVo; read-out: LC50 LOVO) was ≥ 32.6 µM. For the same compound, the “TGI H-MEC-1” value (HMEC1; SRB assay, 48 hours exposure) was 3.21E−07, the GI50 (HMEC1; read-out: GI50 H-MEC-1, SRB assay, 48 hours exposure) was 0.206 µM and the CC50 (HMEC1; read-out: LC50 H-MEC-1, SRB assay, 48 hours exposure) was 1.26 µM. The “TGI IGROV-ET” value (IGROV-ET) was 1.61E−06, the GI50 (IGROV-ET; read-out: GI50 IGROV-ET) was 0.555 µM and the CC50 (IGROV-ET; read-out: LC50 IGROV-ET) was ≥ 32.6 µM. For the same compound, the GI50 (SK-OV-3; Homo sapiens, SK-OV-3, 48 h, read-out: GI50 SKOV-3, SRB assay, 48 hours exposure) was 1.3 µM, the “TGI SKOV-3” value (SK-OV-3; SRB assay, 48 hours exposure) was 3.26E−06 and the CC50 (SK-OV-3; read-out: LC50 SKOV-3, SRB assay, 48 hours exposure) was 3.26 µM. The “TGI MEL-28” value (SK-MEL-28) was 9.24E−07, the GI50 (SK-MEL-28; read-out: GI50 MEL-28) was 0.398 µM and the CC50 (SK-MEL-28; read-out: LC50 MEL-28) was 2.16 µM. The “TGI IGROV” value (IGROV-1) was 2.74E−06, the GI50 (IGROV-1; read-out: GI50 IGROV) was 1.3 µM and the CC50 (IGROV-1; read-out: LC50 IGROV) was ≥ 32.6 µM. The “TGI LOVO-DOX” value (LoVo-Dox) was 2.79E−06, the GI50 (LoVo-Dox; read-out: GI50 LOVO-DOX) was 0.702 µM and the CC50 (LoVo-Dox; read-out: LC50 LOVO-DOX) was 15.1 µM. For the same compound, the “TGI A-549” value (A-549; SRB assay, 48 hours exposure) was 3.26E−05, the GI50 (A-549; read-out: GI50 A-549, SRB assay, 48 hours exposure) was ≥ 32.6 µM and the CC50 (A-549; read-out: LC50 A-549, SRB assay, 48 hours exposure) was > 32.6 µM.
With `CSc1nccc(-c2c3c(Cl)ccnc3n3c(SC)nccc23)n1` [Compound 84] the GI50 (HT-29; [7]) was 26.7 µM, the CC50 (HT-29; [8]) was 26.7 µM and the “TGI HT-29” value (HT-29; SRB assay, 48 hours exposure) was 2.67E−05. The CC50 at 48 h ([1]; LC50 H-MEC-1, SRB assay) was 26.7 µM, the GI50 (HMEC1; [9]) was 26.7 µM and the “TGI H-MEC-1” value (HMEC1; SRB assay, 48 hours exposure) was 2.67E−05. The GI50 (A-549; [10]) was 26.7 µM, the CC50 (A-549; [11]) was 26.7 µM and the “TGI A-549” value (A-549; SRB assay, 48 hours exposure) was 2.67E−05.
For `COc1ccc(CNc2ccnc3c2c(-c2ccnc(SC)n2)c2ccnc(NCc4ccc(OC)cc4)n23)cc1` [Compound 85], the GI50 (HT-29; [7]) was 12.2 µM, the CC50 (HT-29; [8]) was 17.7 µM and the “TGI HT-29” value (HT-29; SRB assay, 48 hours exposure) was 1.77E−05. For the same compound, the CC50 at 48 h ([1]; LC50 H-MEC-1, SRB assay) was 17.7 µM, the GI50 (HMEC1; [9]) was 6.19 µM and the “TGI H-MEC-1” value (HMEC1; SRB assay, 48 hours exposure) was 1.77E−05. For the same compound, the GI50 (A-549; [10]) was 6.58 µM, the CC50 (A-549; [11]) was 17.7 µM and the “TGI A-549” value (A-549; SRB assay, 48 hours exposure) was 1.77E−05.
In the case of `CSc1nccc(-c2c3c(N)ccnc3n3c(N)nccc23)n1` [Compound 92], the GI50 (HT-29; [7]) is reported as 2.04 µM, the CC50 (HT-29; [8]) is reported as 30.9 µM and the “TGI HT-29” value (HT-29; SRB assay, 48 hours exposure) is reported as 3.09E−05. For the same compound, the CC50 at 48 h ([1]; LC50 H-MEC-1, SRB assay) was 30.9 µM, the GI50 (HMEC1; [9]) was 0.782 µM and the “TGI H-MEC-1” value (HMEC1; SRB assay, 48 hours exposure) was 3.09E−06. For the same compound, the GI50 (A-549; [10]) was 1.76 µM, the CC50 (A-549; [11]) was 24.4 µM and the “TGI A-549” value (A-549; SRB assay, 48 hours exposure) was 6.03E−06.
For `CSc1nccc(-c2c3c(OCc4ccccc4)ccnc3n3c(N)nccc23)n1` [Compound 94], the GI50 (HT-29; [7]) was 24.1 µM, the CC50 (HT-29; [8]) was 24.1 µM and the “TGI HT-29” value (HT-29; SRB assay, 48 hours exposure) was 2.41E−05. The CC50 at 48 h ([1]; LC50 H-MEC-1, SRB assay) was 24.1 µM, the GI50 (HMEC1; [9]) was 9.19 µM and the “TGI H-MEC-1” value (HMEC1; SRB assay, 48 hours exposure) was 1.97E−05. The GI50 (A-549; [10]) was 24.1 µM, the CC50 (A-549; [11]) was 24.1 µM and the “TGI A-549” value (A-549; SRB assay, 48 hours exposure) was 2.41E−05.
